US7173004B2, “Macrocyclic isoquinoline peptide inhibitors of hepatitis C virus” (Bristol-Myers Squibb Company, priority 2003, dated 2007)

The compounds below were run on HCV replicon (HCV 1b-377-neo replicon cells, Huh7) (assay: HCV replicon cell-based FRET assay). Settings: Hepatitis C virus, Huh-7.
Method in brief: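 Huh7 cells carrying a neo-selectable genotype 1b HCV replicon (~3,000 RNA copies/cell) were seeded at 1.5×10^4 cells/well and treated 4 days at 37 °C (0.5% DMSO final). CC50 was read by alamar Blue (4 h, ex 530/em 580 nm). Lysates with 10 μM EDANS/DABCYL NS3 protease FRET peptide were read kinetically (ex 340/em 490 nm, 25 °C, ~15 min) for % inhibition.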

Q: With `CC(C)(C)OC(=O)N[C@H]1CN(S(C)(=O)=O)CCC/C=C\[C@@H]2C[C@@]2(C(=O)NS(=O)(=O)C2CC2)NC(=O)[C@@H]2C[C@@H](Oc3nccc4ccccc34)CN2C1=O` [Compound 153] as the compound, how does the EC50 read?
A: The EC50 was 50 to 500 nM.

Q: For `COc1ccc2c(OC3CC4C(=O)NC5(C(=O)NS(=O)(=O)C6CC6)CC5C=CCCCOCC(NC(=O)OC(C)C)C(=O)N4C3)nc(-c3ccc(N(C)C)cc3)cc2c1` (stereo not drawn) [Compound 109], which EC50 is on record?
A: Its EC50 is < 50 nM.

Q: For `COc1ccc2c(OC3CC4C(=O)NC5(C(=O)NS(=O)(=O)C6CC6)CC5C=CCCCCCC(NC(=O)OC(C)(C)C)C(=O)N4C3)nccc2c1OC` (stereo not drawn) [Compound 134], which EC50 is on record?
A: Its EC50 is < 50 nM.

Q: How did the EC50 turn out when `CC(C)(C)OC(=O)N[C@H]1CNCCC/C=C\[C@@H]2C[C@@]2(C(=O)NS(=O)(=O)C2CC2)NC(=O)[C@@H]2C[C@@H](Oc3nccc4ccccc34)CN2C1=O` [Compound 151] was run?
A: The EC50 was 50 to 500 nM.

Q: Which EC50 does the source give for `COc1ccc2c(OC3CC4C(=O)NC5(C(=O)NS(=O)(=O)C6CC6)CC5C=CCCCSC(C)(C)C(NC(=O)NC5CCCC5)C(=O)N4C3)nccc2c1` (stereo not drawn) [Compound 82] here?
A: Its EC50 is 50 to 500 nM.

Q: With `COc1ccc2c(OC3CC4C(=O)NC5(C(=O)NS(=O)(=O)C6CC6)CC5C=CCOCCCC(NC(=O)Nc5ccc(C#N)cc5)C(=O)N4C3)nc(-c3ccccc3)cc2c1` (stereo not drawn) [Compound 105] as the compound, how does the EC50 read?
A: Its EC50 is 50 to 500 nM.

Q: `COc1ccc2c(OC3CC4C(=O)NC5(C(=O)NS(=O)(=O)C6CC6)CC5C=CCOCCCC(NC(=S)NC5CC5)C(=O)N4C3)nc(-c3ccccc3)cc2c1` (stereo not drawn) [Compound 104] was tested. Which EC50 did it give?
A: The EC50 was 50 to 500 nM.

Q: Which EC50 does the source give for `COc1ccc2c(OC3CC4C(=O)NC5(C(=O)NS(=O)(=O)C6CC6)CC5C=CCCCOCC(NC(=O)NC(C)(C)C)C(=O)N4C3)nc(-c3ccccc3)cc2c1` (stereo not drawn) [Compound 92] here?
A: Its EC50 is < 50 nM.

Q: For `O=CNC1CCCCCC=CC2CC2(C(=O)NS(=O)(=O)C2CC2)NC(=O)C2CC(Oc3nccc4ccccc34)CN2C1=O` (stereo not drawn) [Compound 119], which EC50 is on record?
A: Its EC50 is 50 to 500 nM.

Q: With `CC(C)(C)OC(=O)NC1CN(C(=O)C2CC2)CCCC=CC2CC2(C(=O)NS(=O)(=O)C2CC2)NC(=O)C2CC(Oc3nccc4ccccc34)CN2C1=O` (stereo not drawn) [Compound 152] as the compound, how does the EC50 read?
A: The EC50 was 50 to 500 nM.

Q: For `CC(=O)N1CCC/C=C\[C@@H]2C[C@@]2(C(=O)NS(=O)(=O)C2CC2)NC(=O)[C@@H]2C[C@@H](Oc3nccc4ccccc34)CN2C(=O)[C@@H](NC(=O)OC(C)(C)C)C1` [Compound 146], which EC50 is on record?
A: The EC50 was 500 to 5000 nM.

Q: Which EC50 does the source give for `CN1CCC/C=C\[C@@H]2C[C@@]2(C(=O)NS(=O)(=O)C2CC2)NC(=O)[C@@H]2C[C@@H](Oc3nccc4ccccc34)CN2C(=O)[C@@H](NC(=O)OC(C)(C)C)C1` [Compound 147] here?
A: The EC50 was < 50 nM.
